Experimental data as given in patent US20210401782A1, “COMPOSITION FOR PREVENTING AND TREATMENT OF STROKE” (NEUROBIOGEN CO.,LTD, priority 2018, published 2021).

Legend:
Format in all cases: in vivo, SD rat
rodent stroke model [1] = assay: single-pellet reaching task (SPRT) in rodent stroke model; details: Stroke+rehab+KDS2010: 10 mg/kg orally once a day plus rehabilitation training; white-matter cerebral infarction rat model
Description: (§1) Light stimuli was applied to the posterior limb of the internal capsule of a 9 week-old SD rat to produce a white-matter cerebral infarction animal model.
(§2) Specifically, the animal was anesthetized with an anesthetic drug, a combination of ketamine (ketamine hydrochloride, 100 mg/kg) and xylazine (7 mg/kg), and a hole was drilled at a position of 2.0 mm rearwards and 3.1 mm laterally outwards from the skull bregma using stereotaxis, and an optical fiber (inner diameter of 62.5 μm, outer diameter of 125 μm) was inserted to a depth of 7.2 mm to target the posterior limb of the internal capsule. Rose bengal (20 mg/kg) was injected into the tail vein, and optical stimulation was conducted using a 3.7 mW green laser for 1.5 minutes through an optical fiber. Then, the optical fiber was removed and the operation was completed, ketoprofen (2 mg/kg) was injected for pain control, and then the animal was allowed to recover. The control group was injected with 0.9% saline, instead of rose bengal. […]
For the single-pellet reaching task, an acrylic box (45 cm×13 cm×40 cm) having a 1 cm vertical slit on the front wall thereof was used, and a sugar pellet was placed in front of the slit. […] The proportion of the number of pellets remaining in the mouth, without dropping, to 20 pellets in total was calculated.

rodent stroke model [2] = assay: cylinder test in rodent stroke model; details: Stroke+KDS2010: 10 mg/kg orally once a day, no rehabilitation; compared to the control group
Description: as §1, §2
For the cylinder test, animals were placed in a transparent cylinder (20 cm in diameter and 30 cm in height) to observe which limb was used more when supporting the cylinder wall with the forelimbs. A total of 20 movements were recorded, and the ratio of the use of the forelimb corresponding to the stroke and the opposite forelimb was calculated during the total number of cycles.

rodent stroke model [3] = assay: neurofiber staining, size of the infarction in an internal capsule; details: 10 mg/kg orally once a day
Description: as §1
Specifically, the animal was anesthetized with an anesthetic drug, a combination of ketamine (ketamine hydrochloride, 100 mg/kg) and xylazine (7 mg/kg), and a hole was drilled at a position of 2.0 mm rearwards and 3.1 mm laterally outwards from the skull bregma using stereotaxis, and an optical fiber (inner diameter of 62.5 μm, outer diameter of 125 μm) was inserted to a depth of 7.2 mm to target the posterior limb of the internal capsule. Rose bengal (20 mg/kg) was injected into the tail vein, and optical stimulation was conducted using a 3.7 mW green laser for 1.5 minutes through an optical fiber. Then, the optical fiber was removed and the operation was completed, ketoprofen (2 mg/kg) was injected for pain control, and then the animal was allowed to recover. The control group was injected with 0.9% saline, instead of rose bengal.
Rats in the group administered with KDS2010 as a drug were orally administered with a solution of KDS2010 in saline at a concentration of 10 mg/kg once a day (FIG. 2A).
Rats in the rehabilitation-trained group practiced a single-pellet reaching task (SPRT) for 20 minutes daily for 3 weeks after stroke surgery. […]

In the case of `C[C@H](NCc1ccc(-c2ccc(C(F)(F)F)cc2)cc1)C(N)=O` [KDS2010, (S)-2-(((4′-trifluoromethylbiphenyl-4-yl)methyl)amino)propanamide methanesulfonate], the “motor function through single-pellet reaching task” value (rodent stroke model [1]) is reported as “recovered motor function to an almost normal level”, the “motor function using the cylinder test” value (rodent stroke model [2]) is reported as “significantly recovered motor function” and the “size of the infarction in the internal capsules” value (rodent stroke model [3]; Stroke+KDS: drug-administered group, no rehabilitation, versus control group) is reported as “considerably larger size of the infarction”. For the same molecule, the “size of the infarction in the internal capsules” value (rodent stroke model [3]; Stroke+rehab+KDS: rehabilitation training in combination with drug administration) was “further reduced infarction sizes”.
